For 90 compounds, melting point results are on record in a melting point compilation (Tetko et al.; mined from patent text by program, amines drawn as free bases though some values may be those of a salt).

SMILES strings stand for the structures.

Usually melting point stands for the temperature of the solid-liquid transition.

On to `COc1cc([N+](=O)[O-])c2nccc(C)c2c1OCCCc1ccccc1`, for which the melting point was 100 to 102 °C.

`CCc1noc(-c2cn(-c3ncc(Cl)cc3Cl)cn2)n1` registered a melting point of 132 to 133 °C.

For `CCN(CC)c1ccc([PH](=O)c2ccc(N(CC)CC)cc2)cc1`, the melting point is 129 °C.

In turn, `O=C(c1cnccn1)N1CCCC(c2ccccc2)=N1` displayed a melting point of 98 to 100 °C.

The compound `Cc1cn(C(C)(C)C(=O)N(C)C)nc1-c1ccco1` displayed a melting point of 131 to 134 °C.

On to `CCCN1CCc2cc(NC(=O)C(=O)N[C@H]3CCOC3O)ccc21` (stereo not given in full), for which the melting point is 120 to 122 °C.

`Cn1nc(CO)cc1OCCCN1CCN(c2cccc3sccc23)CC1`: the melting point lay within 124 to 126 °C.

Compound `CCC1SC(NC)=NN1C(=O)C(C)(C)C` (stereo not given) gave a melting point of 78.5 to 80 °C.

In the case of `COc1cc(Nc2c(C#N)cnc3cc(OCCCN4CCS(=O)(=O)CC4)c(OC)cc23)c(Cl)cc1Cl`, the melting point is 118 to 120 °C.

On to `Cc1nc(-c2ccc([N+](=O)[O-])cc2)sc1C(=O)O`, for which the melting point was 252 to 253 °C.

In turn, `CC(C)c1nc(COC(N)=O)n(C)c1Sc1cc(Cl)cc(Cl)c1` returned a melting point of 146 to 148 °C.

`CSc1cccc2c1Sc1ccc(O)cc1N2` returned a melting point of 188 to 190 °C.

With `O=C(NCCNc1c(Cl)cncc1Cl)C1CCN(c2c(Cl)cncc2Cl)CC1`, the melting point fell in the range of 157 to 159 °C.

Compound `CNS(=O)(=O)c1ccc2c(c1)S(=O)(=O)N=C1CCCN12` came in with a melting point of 244 to 247 °C.

`OCC(O)Cn1ncc2c(N(Cc3cccc(Cl)c3)C3CCCC3)ncnc21` (stereo not given) had a melting point of 98 to 100 °C.

In turn, `COCCOc1cc2ncnc(NC3=CC(=O)C(Oc4ccccc4C)=CC3=O)c2cc1OC` yielded a melting point of 134 to 137 °C.

With `Cc1cc2c(c3occ(-c4ccc(C(C)C)cc4)c13)CCCC2`, the melting point was in the range of 97 to 98 °C.

For the compound `Oc1ccc(N2CCN(Cc3nc4ccccc4o3)CC2)cc1`, the melting point is 155 to 156 °C.

The compound `CC(C)(C)OC(=O)N1CCc2c(n(CCO)c3c(Cl)ccc(Cl)c23)CC1` gave a melting point of 156 to 158 °C.

The compound `Cc1nc(N)sc1-c1cccnc1` gave a melting point of 190 to 191 °C.

Regarding `N=C(N)Nc1ncc(Cl)c2ccc(C(=O)NCCC(=O)O)cc12`, the melting point fell in the range of 235 to 236 °C.

For the compound `COC(=O)c1cc(C)cc(Br)c1NS(=O)(=O)c1ccc(OC)cc1`, the melting point came to 113 °C.

Compound `CCCCN=C(O)c1c(Cl)c(Sc2ccccc2)c(Sc2ccccc2)c(Cl)c1C(=O)O` yielded a melting point of 215 to 216 °C.

`CC(=O)NCCc1nnc(S)s1` yielded a melting point of 157 to 160 °C.

In turn, `Nc1nc2ccccc2c2sc(C=Cc3ccccc3)nc12` returned a melting point of 239 to 241 °C.

In turn, `CC(C)(C)c1cc(-c2ccc(NC(=O)COCC(=O)O)cc2)cc(C(C)(C)C)c1O` gave a melting point of 183 to 184 °C.

As to `CC(C)(CO)CCNC(=O)OC(C)(C)C`, the melting point fell in the range of 75.5 to 76.5 °C.

Regarding `CN1OCC(C(O)c2cc(C(C)(C)C)c(O)c(C(C)(C)C)c2)C1=O` (stereo not given), the melting point lay in the range of 137 to 140 °C.

For the compound `C/C=C/CC(=O)N[C@H]1CC[C@H](CCN2CCN(c3nccc4c3CCO4)CC2)CC1`, the melting point is 176 °C.

`Clc1nc(-c2nnc(Oc3ccccc3)o2)[nH]c1Cl` registered a melting point of 109 °C.

`Cc1ccc(P(C)(C)=O)cc1` had a melting point of 90 to 92 °C.

`COc1cc(C)c(C=CC(C)=CC=O)cc1C`: the melting point was 90 to 92 °C.

Turning to `CCCCNc1nc2cccc(C(=O)OC)c2n1Cc1ccc(-c2ccccc2-c2nnn[nH]2)cc1`, the melting point is 163 to 167 °C.

The compound `Cc1ccc(S(=O)(=O)NC(Cc2ccccc2)C(=O)NCCCCC(C(=O)O)N(CC(C)C)S(=O)(=O)c2ccc(C)cc2)cc1` (stereo not given) came in with a melting point of 301 to 306 °C.

`OC1CCN(c2cc3nc(S)[nH]c3cc2F)CC1`: the melting point fell in the range of 268 to 269 °C.

On to `O=C1c2ccc(-c3cccnc3)cc2CC1Cl` (stereo not given), for which the melting point is 103 to 105 °C.

`CCOC(=O)Cn1c(=O)n(Cc2ccc(Cl)c(Cl)c2)c(=O)c2c(C)c(Cl)sc21` displayed a melting point of 141 to 145 °C.

`CCN(C)c1nc2cc(NC(=O)OC(C)(C)C)ccn2n1`: the melting point lay within 181 to 183 °C.

Consider `CCn1cc(C(=O)O)c(=O)c2cc(F)c(N3CCC(CN(C)C)C3)c(F)c21` (stereo not given), for which the melting point is 204 to 206 °C.

`CC(C)c1nc(CN2C(=O)C3(COc4cc5c(cc43)OCO5)c3cccc(C#N)c32)cs1` (stereo not given) had a melting point of 162 to 163 °C.

In turn, `CNC(=O)c1ccccc1Sc1ccc(C)cc1[N+](=O)[O-]` registered a melting point of 122 to 123 °C.

For `CCOC(=O)N(C(=S)NC(C)C)c1c(C(C)C)cc(Oc2ccccc2)cc1C(C)C`, the melting point is 107 to 108 °C.

On to `O=C(O)c1cc(F)c(F)c(C(F)(F)F)c1F`, for which the melting point lay in the range of 87 to 90 °C.

`CC1C(=O)NC2=NC=CCN21` (stereo not given) displayed a melting point of 212 °C.

`Cc1csc2c(-c3ccccc3)c(-c3ccc(Cl)s3)c(CC(=O)O)n12` yielded a melting point of 182 to 183 °C.

For `Cc1cc2n(n1)-c1ccc(Cl)cc1C(c1ccccc1)NC2=O` (stereo not given), the melting point is 258 to 261 °C.

`COc1cc(C(=O)NS(=O)(=O)c2ccccc2C)ccc1Cc1c(Cl)n(C)c2ccc(CC3CCN(C)C3=O)cc12` (stereo not given) yielded a melting point of 129 to 133 °C.

On to `COC(=O)C(Oc1cc(OCc2ccsc2)ccc1C#N)c1ccccc1C(F)(F)F` (racemic), for which the melting point was in the range of 104 to 108 °C.

The compound `O=c1oc2c3c(n(-c4ccccc4)c(=O)c2c(O)c1Sc1ccccc1)-c1ccccc1C3` displayed a melting point of 274 to 275 °C.

For `COc1cc(CO)ccc1OCc1cn(-c2ccccn2)nc1C`, the melting point lay within 135 to 136 °C.

`Cc1oc(-c2ccccc2)nc1COc1nn(Cc2ccc(Oc3ccccc3)cc2)cc1C=O` returned a melting point of 129 to 130 °C.

`CC(=O)NCCNC(=O)CCCCC1CCSS1` (stereo not given) showed a melting point of 145 to 146 °C.

With `COc1cc2c(cc1OC)C(=O)C(=Cc1ccc(O)cc1)CC2`, the melting point is 197 to 199 °C.

`CCOC(=O)c1cc(=O)c2cc(OCC(O)COc3ccc(C#N)cc3)ccc2o1` (stereo not given) had a melting point of 150 to 152 °C.

`Clc1ncc(OCc2ccccc2)c2ccccc12` yielded a melting point of 97 to 98 °C.

`CCNc1nc(C)cc(O)n1` yielded a melting point of 176 °C.

`CCc1ccc(-c2nc3ccccc3[nH]2)cc1`: the melting point amounted to 258 °C.

For `CCOc1cc(NC(C)=O)c([N+](=O)[O-])cc1C(=O)OC`, the melting point worked out at 110 °C.

With `CNC(=O)N1CC(Oc2ccccc2Cl)C1`, the melting point lay within 130 to 132 °C.

In turn, `COc1cc2ncnc(N3CCN(C(=S)NCc4ccc(N(C)C)cc4)CC3)c2cc1OC` displayed a melting point of 177 to 178 °C.

`Nc1ccccc1-c1n[nH]c(=S)n1N` had a melting point of 191 to 192 °C.

Consider `CC(=O)N(C)C(Cc1ccccc1N)c1sccc1C` (stereo not given), for which the melting point was 176 to 182 °C.

In turn, `Cn1cccc(N)c1=S` returned a melting point of 98 to 100 °C.

Turning to `O=C(c1ccc(Cl)cc1)N1CCC(=Cc2ccc(C3=NCCO3)cc2)CC1`, the melting point is 163 to 164 °C.

In turn, `CSC1=NC2=NC3=C(CSCC3=O)CN2N1` displayed a melting point of 295 to 297 °C.

`Cc1cn(-c2cccc(O)c2)cn1` showed a melting point of 203 to 205 °C.

As for `COc1cc(Nc2nccc(Nc3ccccc3)n2)cc(OC)c1OC`, the melting point amounted to 186 °C.

As for `NS(=O)(=O)c1ccc(N2CN(c3ccccc3)CC2=O)cc1Cl`, the melting point lay in the range of 257 to 259 °C.

`COc1nc2c(S(=O)(=O)c3ccccc3)c(SC)nn2c(N2CCN(C)CC2)c1C` returned a melting point of 207 to 208 °C.

As to `CS(=O)(=O)Nc1cccc(Nc2nc(NCc3cccc(N)c3)c3nc[nH]c3n2)c1`, the melting point fell in the range of 170 to 173 °C.

Compound `CC(C)c1ccc(C(=O)c2ccc(N)cc2)cc1` showed a melting point of 110 °C.

Take `S=[PH2]CCC(c1ccccc1)(c1ccccc1)c1ccccc1`: the melting point was determined as 88 °C.

Compound `COc1ccc(N/C(SC)=C(\C#N)C(N)=O)cc1O` displayed a melting point of 160 to 164 °C.

With `CN(C)c1cc2c(=O)n(NS(C)(=O)=O)c(=O)[nH]c2cc1C(F)(F)F`, the melting point was 254 to 272 °C.

Consider `CCCCCCCCCCOc1cnc(-c2ccc(C(C)O)cc2)nc1` (single isomer, unassigned; (+)), for which the melting point lay in the range of 65 to 66 °C.

Consider `c1ccc(-c2cn3c(nc4ccccc43)s2)nc1`, for which the melting point lay in the range of 222 to 224 °C.

Turning to `CC12CC(=O)C3C(CCC4CC(O)CCC43C)C1CCC2C(=O)COc1ccc([N+](=O)[O-])cc1` (stereo not given), the melting point fell in the range of 186 to 187 °C.

The compound `COC(=O)c1c(Cl)ccc(C(=O)O)c1Cl` registered a melting point of 183 to 185 °C.

`COC(=O)c1[nH]c(C)c(C)c1O` yielded a melting point of 170 to 172 °C.

The compound `FC(F)c1nc2ccccc2n1-c1nc(Nc2ccccc2)nc(N2CCOCC2)n1` yielded a melting point of 171 to 174 °C.

`COc1nc(C)cnc1NS(=O)(=O)c1cccnc1-c1ccc(C(C)(C)C)cc1` came in with a melting point of 150 to 151 °C.

In turn, `CSCC[C@H](NC(=O)OCc1ccccc1)C(=O)[C@@H](C(N)c1ccccc1)[C@H](O)C(=O)N1C[C@@H](Cl)C[C@H]1C(=O)NC(C)(C)C` (stereo not given in full) gave a melting point of 81 to 88 °C.

`c1ccc(CNc2nc(-c3ccco3)nc3ccccc23)cc1`: the melting point was 152 to 154 °C.

On to `CC(C)(C)c1cc(CCc2ccccc2NC(=O)NCC(C)(C)c2ccc(Cl)c(Cl)c2)cc(C(C)(C)C)c1O`, for which the melting point fell in the range of 165 to 167 °C.

Compound `CCOC(=O)C(=O)Nc1nc2c(s1)C(=O)c1ccccc1-2` displayed a melting point of 237 to 238 °C.

Compound `CCCn1c(COCC)nc2c(N)nc3cc(OC4CCN(C(C)=O)CC4)ccc3c21` yielded a melting point of 178 to 180 °C.

With `O=C(c1ccc(-c2cccc3ccccc23)cc1Cl)N1Cc2cccn2Cc2ccccc21`, the melting point lay in the range of 115 to 118 °C.

`O=C(O)C(Cl)(Cl)CCCCCCCCCCC#Cc1ccccc1` registered a melting point of 155 to 157 °C.

Regarding `CCc1noc2cc(-c3ccccc3)n(C)c(=O)c12`, the melting point was 167 to 169 °C.

Compound `CCC(=O)Nc1ccc(C(=O)c2nc(-c3cccc(C(=O)O)c3)c3ccccn23)cc1OC` gave a melting point of 145 °C.
